Patent US20240148709A1, “METHODS OF TREATING EYE PAIN AND EYE DISORDERS” (Aisa Pharma, Inc., priority 2022, published 2024)

Tested on: participants with SSc-RP
Test: Scleroderma Health Assessment Questionnaire (SHAQ), Phase 2a study Part A
Assay type: in vivo, human
Details: cilnidipine 10 mg and/or tadalafil 5 mg arms
Method: Part A—double-blind, placebo-controlled, parallel-group, dose selection, will assess the safety and efficacy of two doses of cilnidipine (10 mg and 20 mg), alone and in combination with tadalafil. A total of 36 participants will be randomized to one of six prespecified treatment arms. Refer to FIG. 1 for treatment arms in Part A of the study. Dosing last for 12 (±2) days in which participants will self-administer daily doses of assigned treatment in the morning. Each participant will take one capsule and one tablet to blind the active therapy being received.
The standard, validated, patient reported outcome measures tool for SSc patients, the SHAQ, will be collected at the time points specified in the study schedules (FIG. 2 and FIGS. 3A and 3B) to assess the participant's quality of life. The SHAQ includes a Raynaud's VAS that will also be reported separately.
Results: Patients in the study were administered the Scleroderma Health Assessment Questionnaire (SHAQ) at the time of study entry and during clinic visits following the treatment period. The study is a two-part, parallel arm design, prospective, double-blind, randomized study conducted in Australia (Flinders Medical Center). 27 patients were randomized into the first phase of the study, following which a DSMB meeting was held, which reviewed data on the primary study endpoint and key Raynaud's secondary endpoints. Data on the SHAQ was not available for the DSMB to review. The mITT population, in which any data was available post treatment was 24 patients was the analysis population for this first part of the study. The second part (i.e., part B) of the study will randomize 36 patients in a double blind, randomized, prospective, placebo controlled, crossover study. In the first part (i.e., Part A) of the study for which data is presented, patients were randomized into 6 groups, cilnidipine at two doses (10 and 20 mg) alone and in combination with tadalafil 5 mg, tadalafil 5 mg alone, and placebo. […] The DSMB recommended that the study proceed into its double blind prospective cross overpowered second phase and compare cilnidipine 20 mg alone to placebo.

COCCOC(=O)C1=C(C)NC(C)=C(C(=O)OC/C=C/c2ccccc2)C1c1cccc([N+](=O)[O-])c1 (stereo not shown) [Cilnidipine, cilnidipine]
SHAQ Overall Change in Severity, Percent Change from Baseline, Max: −26.8% | SHAQ Overall Change in Severity, Percent Change from Baseline, Mean (SD): −56.96 (38.271) % | SHAQ Overall Change in Severity, Percent Change from Baseline, Median: −44.12% | SHAQ Overall Change in Severity, Percent Change from Baseline, Min: −100.0% | SHAQ Overall Change in Severity, Percent Change from Baseline, Q1: −100.00% | SHAQ Overall Change in Severity, Percent Change from Baseline, Q3: −26.76% | SHAQ Standard disability index, Change from Baseline, Max: 0.00, 0.00 | SHAQ Standard disability index, Change from Baseline, Mean (SD): 0.0 (0.0000) | SHAQ Standard disability index, Change from Baseline, Median: 0.000 | SHAQ Standard disability index, Change from Baseline, Min: 0.00, 0.00 | SHAQ Standard disability index, Change from Baseline, Q1: 0.000, 0.000 | SHAQ Standard disability index, Change from Baseline, Q3: 0.000, 0.000 | SHAQ Standard disability index, In Clinic Visit (Day 12), Max: 1.50 | SHAQ Standard disability index, In Clinic Visit (Day 12), Mean (SD): 0.656 (0.7731) | SHAQ Standard disability index, In Clinic Visit (Day 12), Median: 0.563 | SHAQ Standard disability index, In Clinic Visit (Day 12), Min: 0.00 | SHAQ Standard disability index, In Clinic Visit (Day 12), Q1: 0.000 | SHAQ Standard disability index, In Clinic Visit (Day 12), Q3: 1.313 | SHAQ Standard disability index, Percent Change from Baseline, Max: 0.0, 0.0% | SHAQ Standard disability index, Percent Change from Baseline, Mean (SD): 0.0 (0.000) % | SHAQ Standard disability index, Percent Change from Baseline, Median: 0.00% | SHAQ Standard disability index, Percent Change from Baseline, Min: 0.0, 0.0% | SHAQ Standard disability index, Percent Change from Baseline, Q1: 0.00, 0.00% | SHAQ Standard disability index, Percent Change from Baseline, Q3: 0.00, 0.00% | SHAQ Visual Analog Scale-Breathing Problems, Change from Baseline, Max: 0.00 | SHAQ Visual Analog Scale-Breathing Problems, Change from Baseline, Mean (SD): −0.300 (0.6000) | SHAQ Visual Analog Scale-Breathing Problems, Change from Baseline, Median: 0.000 | SHAQ Visual Analog Scale-Breathing Problems, Change from Baseline, Min: −1.20 | SHAQ Visual Analog Scale-Breathing Problems, Change from Baseline, Q1: −0.600 | SHAQ Visual Analog Scale-Breathing Problems, Change from Baseline, Q3: 0.000 | SHAQ Visual Analog Scale-Breathing Problems, In Clinic Visit (Day 12), Max: 6.30 | SHAQ Visual Analog Scale-Breathing Problems, In Clinic Visit (Day 12), Mean (SD): 1.575 (3.1500) | SHAQ Visual Analog Scale-Breathing Problems, In Clinic Visit (Day 12), Median: 0.000 | SHAQ Visual Analog Scale-Breathing Problems, In Clinic Visit (Day 12), Min: 0.00 | SHAQ Visual Analog Scale-Breathing Problems, In Clinic Visit (Day 12), Q1: 0.000 | SHAQ Visual Analog Scale-Breathing Problems, In Clinic Visit (Day 12), Q3: 3.150 | SHAQ Visual Analog Scale-Breathing Problems, Percent Change from Baseline, Max: −16.0, −16.0% | SHAQ Visual Analog Scale-Breathing Problems, Percent Change from Baseline, Mean (SD): −16.00% | SHAQ Visual Analog Scale-Breathing Problems, Percent Change from Baseline, Median: −16.00% | SHAQ Visual Analog Scale-Breathing Problems, Percent Change from Baseline, Min: −16.0, −16.0% | SHAQ Visual Analog Scale-Breathing Problems, Percent Change from Baseline, Q1: −16.00, −16.00% | SHAQ Visual Analog Scale-Breathing Problems, Percent Change from Baseline, Q3: −16.00, −16.00% | SHAQ Visual Analog Scale-Intestinal Problems, Change from Baseline, Max: 0.00 | SHAQ Visual Analog Scale-Intestinal Problems, Change from Baseline, Mean (SD): −1.875 (2.1838) | SHAQ Visual Analog Scale-Intestinal Problems, Change from Baseline, Median: −1.550 | SHAQ Visual Analog Scale-Intestinal Problems, Change from Baseline, Min: −4.40 | SHAQ Visual Analog Scale-Intestinal Problems, Change from Baseline, Q1: −3.700 | SHAQ Visual Analog Scale-Intestinal Problems, Change from Baseline, Q3: −0.050 | SHAQ Visual Analog Scale-Intestinal Problems, In Clinic Visit (Day 12), Max: 3.80 | SHAQ Visual Analog Scale-Intestinal Problems, In Clinic Visit (Day 12), Mean (SD): 1.100 (1.8221) | SHAQ Visual Analog Scale-Intestinal Problems, In Clinic Visit (Day 12), Median: 0.300 | SHAQ Visual Analog Scale-Intestinal Problems, In Clinic Visit (Day 12), Min: 0.00 | SHAQ Visual Analog Scale-Intestinal Problems, In Clinic Visit (Day 12), Q1: 0.000 | SHAQ Visual Analog Scale-Intestinal Problems, In Clinic Visit (Day 12), Q3: 2.200 | SHAQ Visual Analog Scale-Intestinal Problems, Percent Change from Baseline, Max: −44.1% | SHAQ Visual Analog Scale-Intestinal Problems, Percent Change from Baseline, Mean (SD): −77.37 (29.418) % | SHAQ Visual Analog Scale-Intestinal Problems, Percent Change from Baseline, Median: −88.00% | SHAQ Visual Analog Scale-Intestinal Problems, Percent Change from Baseline, Min: −100.0% | SHAQ Visual Analog Scale-Intestinal Problems, Percent Change from Baseline, Q1: −100.00% | SHAQ Visual Analog Scale-Intestinal Problems, Percent Change from Baseline, Q3: −44.12% | SHAQ Visual Analog Scale-Pain, Change from Baseline, Max: 0.30 | SHAQ Visual Analog Scale-Pain, Change from Baseline, Mean (SD): −0.100 (0.4243) | SHAQ Visual Analog Scale-Pain, Change from Baseline, Median: 0.000 | SHAQ Visual Analog Scale-Pain, Change from Baseline, Min: −0.70 | SHAQ Visual Analog Scale-Pain, Change from Baseline, Q1: −0.350 | SHAQ Visual Analog Scale-Pain, Change from Baseline, Q3: 0.150 | SHAQ Visual Analog Scale-Pain, In Clinic Visit (Day 12), Max: 3.60 | SHAQ Visual Analog Scale-Pain, In Clinic Visit (Day 12), Mean (SD): 1.875 (1.6641) | SHAQ Visual Analog Scale-Pain, In Clinic Visit (Day 12), Median: 1.950 | SHAQ Visual Analog Scale-Pain, In Clinic Visit (Day 12), Min: 0.00 | SHAQ Visual Analog Scale-Pain, In Clinic Visit (Day 12), Q1: 0.500 | SHAQ Visual Analog Scale-Pain, In Clinic Visit (Day 12), Q3: 3.250 | SHAQ Visual Analog Scale-Pain, Percent Change from Baseline, Max: 11.5% | SHAQ Visual Analog Scale-Pain, Percent Change from Baseline, Mean (SD): −9.88 (27.711) % | SHAQ Visual Analog Scale-Pain, Percent Change from Baseline, Median: 0.00% | SHAQ Visual Analog Scale-Pain, Percent Change from Baseline, Min: −41.2% | SHAQ Visual Analog Scale-Pain, Percent Change from Baseline, Q1: −41.18% | SHAQ Visual Analog Scale-Pain, Percent Change from Baseline, Q3: 11.54% | SHAQ Visual Analog Scale-Raynaud's, Change from Baseline, Max: 1.50 | SHAQ Visual Analog Scale-Raynaud's, Change from Baseline, Mean (SD): 0.325 (1.0468) | SHAQ Visual Analog Scale-Raynaud's, Change from Baseline, Median: 0.350 | SHAQ Visual Analog Scale-Raynaud's, Change from Baseline, Min: −0.90 | SHAQ Visual Analog Scale-Raynaud's, Change from Baseline, Q1: −0.500 | SHAQ Visual Analog Scale-Raynaud's, Change from Baseline, Q3: 1.150 | SHAQ Visual Analog Scale-Raynaud's, In Clinic Visit (Day 12), Max: 4.30
